The record followed here is ChEMBL document CHEMBL5465560, “Selectivity Literature for EUbOPEN Chemogenomic Library” (2024).

The target in experiment [1] is Tyrosine-protein kinase FRK (Homo sapiens) (UniProt P42685). Put plainly: Selectivity interaction (KinomeScan (DiscoverX)) EUB0000695a FRK. The following applies: at 100 nM.
Experiment [2] deals with T1, Receptor-type tyrosine-protein kinase FLT3 (Homo sapiens), P36888 [D835Y].
T1 sequence (whole entry): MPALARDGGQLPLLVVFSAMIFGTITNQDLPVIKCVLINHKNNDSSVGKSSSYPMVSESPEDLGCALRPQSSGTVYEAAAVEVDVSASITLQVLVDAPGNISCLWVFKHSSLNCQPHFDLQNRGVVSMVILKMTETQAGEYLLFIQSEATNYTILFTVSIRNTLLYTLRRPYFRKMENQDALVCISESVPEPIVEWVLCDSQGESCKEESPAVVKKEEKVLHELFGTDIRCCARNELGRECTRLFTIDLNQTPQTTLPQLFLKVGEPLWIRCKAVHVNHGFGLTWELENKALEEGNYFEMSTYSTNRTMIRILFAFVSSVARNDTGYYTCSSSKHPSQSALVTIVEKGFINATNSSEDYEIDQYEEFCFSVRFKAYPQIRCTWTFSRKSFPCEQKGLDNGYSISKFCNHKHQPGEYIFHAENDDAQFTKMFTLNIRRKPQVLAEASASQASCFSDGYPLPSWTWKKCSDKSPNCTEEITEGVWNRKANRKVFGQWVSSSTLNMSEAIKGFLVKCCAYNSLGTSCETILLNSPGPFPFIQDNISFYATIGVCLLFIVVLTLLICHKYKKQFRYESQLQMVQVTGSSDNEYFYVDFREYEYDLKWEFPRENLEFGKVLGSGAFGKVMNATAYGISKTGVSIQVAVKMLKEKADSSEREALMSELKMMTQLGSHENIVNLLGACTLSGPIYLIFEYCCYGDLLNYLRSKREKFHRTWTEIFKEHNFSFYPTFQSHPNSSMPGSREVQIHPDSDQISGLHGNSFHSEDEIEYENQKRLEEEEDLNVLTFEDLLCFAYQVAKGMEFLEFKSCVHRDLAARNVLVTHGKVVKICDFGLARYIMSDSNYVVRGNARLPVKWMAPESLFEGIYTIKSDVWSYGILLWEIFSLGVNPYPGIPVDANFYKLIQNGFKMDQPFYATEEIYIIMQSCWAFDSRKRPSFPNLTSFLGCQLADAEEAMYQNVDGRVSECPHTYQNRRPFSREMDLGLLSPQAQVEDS
The following applies: at 10 µM.

Experiment [3] addresses T2, cGMP-dependent protein kinase 2 (Homo sapiens) (UniProt Q13237).
T2 sequence (whole entry): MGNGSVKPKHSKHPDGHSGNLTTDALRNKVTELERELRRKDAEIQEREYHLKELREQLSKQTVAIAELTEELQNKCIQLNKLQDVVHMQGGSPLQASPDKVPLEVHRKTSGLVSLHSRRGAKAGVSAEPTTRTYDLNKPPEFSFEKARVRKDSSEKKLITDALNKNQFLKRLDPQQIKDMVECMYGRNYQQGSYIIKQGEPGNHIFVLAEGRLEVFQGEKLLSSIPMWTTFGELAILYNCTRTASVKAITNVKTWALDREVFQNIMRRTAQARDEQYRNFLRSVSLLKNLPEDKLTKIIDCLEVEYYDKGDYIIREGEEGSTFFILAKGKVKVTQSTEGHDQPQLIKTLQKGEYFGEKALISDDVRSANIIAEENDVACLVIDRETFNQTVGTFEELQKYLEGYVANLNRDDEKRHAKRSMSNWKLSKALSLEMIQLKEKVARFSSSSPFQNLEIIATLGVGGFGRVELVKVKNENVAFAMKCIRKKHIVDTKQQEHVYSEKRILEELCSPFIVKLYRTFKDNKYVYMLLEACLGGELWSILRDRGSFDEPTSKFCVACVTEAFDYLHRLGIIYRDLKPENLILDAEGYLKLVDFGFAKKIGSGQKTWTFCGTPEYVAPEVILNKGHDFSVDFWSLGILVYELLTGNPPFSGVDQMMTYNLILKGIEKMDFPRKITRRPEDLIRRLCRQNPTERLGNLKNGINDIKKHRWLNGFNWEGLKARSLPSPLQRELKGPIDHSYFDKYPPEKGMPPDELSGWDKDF
Put plainly: Selectivity interaction (KinomeScan (DiscoverX)) EUB0000045b PRKG2.

Experiment [4] deals with Ribosomal protein S6 kinase alpha-3 (Homo sapiens, UniProt P51812). Put plainly: Selectivity interaction (KinomeScan (DiscoverX)) EUB0000311b RPS6KA3. As to conditions: at 1 µM.
Sequence of Ribosomal protein S6 kinase alpha-3 (P51812 whole entry): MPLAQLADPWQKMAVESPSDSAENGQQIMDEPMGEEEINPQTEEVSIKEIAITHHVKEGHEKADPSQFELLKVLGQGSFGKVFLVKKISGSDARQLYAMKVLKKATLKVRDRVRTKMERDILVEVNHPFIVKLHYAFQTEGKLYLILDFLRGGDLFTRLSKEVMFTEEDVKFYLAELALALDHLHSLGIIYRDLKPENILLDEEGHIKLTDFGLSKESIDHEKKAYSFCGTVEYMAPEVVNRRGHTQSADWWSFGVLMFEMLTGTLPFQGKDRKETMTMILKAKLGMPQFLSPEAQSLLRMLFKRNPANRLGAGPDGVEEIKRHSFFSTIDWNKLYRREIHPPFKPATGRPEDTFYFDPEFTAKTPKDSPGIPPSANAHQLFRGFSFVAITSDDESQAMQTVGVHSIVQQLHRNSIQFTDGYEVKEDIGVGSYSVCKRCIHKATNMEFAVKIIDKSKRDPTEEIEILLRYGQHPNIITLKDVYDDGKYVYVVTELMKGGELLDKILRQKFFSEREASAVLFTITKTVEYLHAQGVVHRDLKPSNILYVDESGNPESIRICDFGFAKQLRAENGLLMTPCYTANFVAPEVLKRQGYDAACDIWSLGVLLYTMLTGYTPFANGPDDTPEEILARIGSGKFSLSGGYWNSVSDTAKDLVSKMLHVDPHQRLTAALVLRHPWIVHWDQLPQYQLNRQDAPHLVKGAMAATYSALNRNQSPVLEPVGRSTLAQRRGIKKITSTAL
Experiment [5] addresses 5-hydroxytryptamine receptor 2B (Homo sapiens, UniProt P41595). Put plainly: Selectivity interaction (GPCR panel (PDSP screen)) EUB0001079a HTR2B. As to conditions: at 10 µM.

Sequence of 5-hydroxytryptamine receptor 2B (P41595 whole entry): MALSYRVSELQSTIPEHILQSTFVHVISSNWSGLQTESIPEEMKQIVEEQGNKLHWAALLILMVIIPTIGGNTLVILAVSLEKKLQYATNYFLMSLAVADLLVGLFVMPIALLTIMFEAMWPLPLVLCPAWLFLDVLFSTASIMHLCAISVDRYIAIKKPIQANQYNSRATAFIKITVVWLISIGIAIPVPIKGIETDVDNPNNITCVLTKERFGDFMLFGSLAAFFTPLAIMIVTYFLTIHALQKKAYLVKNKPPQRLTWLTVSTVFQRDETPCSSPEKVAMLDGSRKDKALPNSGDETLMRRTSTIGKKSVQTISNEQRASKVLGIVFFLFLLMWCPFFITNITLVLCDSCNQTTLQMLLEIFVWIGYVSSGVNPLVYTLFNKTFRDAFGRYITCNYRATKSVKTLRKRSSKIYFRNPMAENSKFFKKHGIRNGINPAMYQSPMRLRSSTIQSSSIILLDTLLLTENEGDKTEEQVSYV
Sequence of Tyrosine-protein kinase FRK (Homo sapiens) (P42685 whole entry): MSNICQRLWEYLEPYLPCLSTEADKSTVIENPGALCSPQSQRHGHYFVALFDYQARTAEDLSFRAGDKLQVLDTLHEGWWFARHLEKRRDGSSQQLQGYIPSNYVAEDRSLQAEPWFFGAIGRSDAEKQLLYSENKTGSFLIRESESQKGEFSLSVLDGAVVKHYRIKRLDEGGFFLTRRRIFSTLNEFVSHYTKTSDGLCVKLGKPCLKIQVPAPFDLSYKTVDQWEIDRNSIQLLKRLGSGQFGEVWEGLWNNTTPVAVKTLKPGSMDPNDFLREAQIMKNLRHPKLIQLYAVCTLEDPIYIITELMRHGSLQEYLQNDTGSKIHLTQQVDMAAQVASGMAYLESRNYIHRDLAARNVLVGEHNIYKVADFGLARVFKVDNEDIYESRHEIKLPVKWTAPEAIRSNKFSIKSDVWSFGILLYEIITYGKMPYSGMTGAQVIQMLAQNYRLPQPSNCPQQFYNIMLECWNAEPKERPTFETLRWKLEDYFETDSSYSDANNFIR

For `Cc1cc(F)c(C(=O)Nc2cccc(-c3nncn3C(C)C)n2)cc1-n1cnc(C2CC2)c1`, the % of control in experiment [1] was 100%. As for `Cc1cc([C@@H](C)Nc2ccccc2C(=O)O)c2nc(N3CCOCC3)cc(=O)n2c1` [AZD-6482], the % of control in experiment [2] is 54%.

Take `C=CC(=O)Nc1cc(-n2c(=O)ccc3cnc4ccc(-c5ccc(NS(C)(=O)=O)cc5)cc4c32)ccc1C`: the % of control came to 100% in experiment [3] (at 1 µM) and 95% in experiment [3] (at 10 µM). In turn, `CCc1ccccc1C(=O)Nc1n[nH]c2c(C)c(F)c(C3C(C#N)=C(C)N(C)C(C)=C3C#N)cc12` [BAY-3827] returned a % of control in experiment [4] of 0.3%. `Nc1cnc(N2CCc3cc(S(=O)(=O)Nc4c(F)cc(Cl)cc4F)cc(N4CCCC4=O)c32)nc1` [TP-020n] returned a % of inhibition in experiment [5] of 12.9%.
